Results taken from the NIST ThermoML archive (doi:10.1016/j.jct.2005.07.009).
± gives the expanded uncertainty stated by the source.

Experiments:
[1] = xn = mol fraction of the nth substance listed; settings: 298.15 K, 101 kPa, Liquid, Vibrating tube method
[2] = excess molar enthalpy (molar enthalpy of mixing); xn = mol fraction of the nth substance listed; settings: 298.15 K, 101 kPa, Liquid

BrCCCBr [1,3-dibromopropane] + CCOC(=O)CC
Settings	excess molar enthalpy [kcal/mol]	mass density [kg/m3]
[1], x2 = 0.1075	–	1839.36 ± 1.4
[1], x2 = 0.161	–	1775.98 ± 1.6
[1], x2 = 0.2159	–	1711.67 ± 1.7
[1], x2 = 0.2732	–	1645.81 ± 1.8
[1], x2 = 0.3842	–	1520.67 ± 2
[1], x2 = 0.4468	–	1451.66 ± 2.2
[1], x2 = 0.5011	–	1392.66 ± 2.2
[1], x2 = 0.5622	–	1327.28 ± 2.3
[1], x2 = 0.6827	–	1201.05 ± 2.4
[1], x2 = 0.7443	–	1137.95 ± 2.4
[1], x2 = 0.8686	–	1013.23 ± 2.4
[2], x2 = 0.0471	0.00559 ± 0.000908	–
[2], x2 = 0.1006	0.0087 ± 0.001	–
[2], x2 = 0.1564	0.00918 ± 0.00103	–
[2], x2 = 0.2139	0.00786 ± 0.00098	–
[2], x2 = 0.2707	0.00387 ± 0.00086	–
[2], x2 = 0.3244	-0.000813 ± 0.000765	–
[2], x2 = 0.3765	-0.00605 ± 0.000932	–
[2], x2 = 0.4201	-0.0111 ± 0.0011	–
[2], x2 = 0.4478	-0.0156 ± 0.00122	–
[2], x2 = 0.4591	-0.0195 ± 0.00134	–
[2], x2 = 0.493	-0.0144 ± 0.00598	–
[2], x2 = 0.4983	-0.0205 ± 0.00139	–
[2], x2 = 0.5563	-0.0245 ± 0.00151	–
[2], x2 = 0.6207	-0.026 ± 0.00155	–
[2], x2 = 0.6908	-0.0251 ± 0.00153	–
[2], x2 = 0.7671	-0.0219 ± 0.00141	–
[2], x2 = 0.8476	-0.0164 ± 0.00124	–
[2], x2 = 0.9262	-0.00906 ± 0.00103	–

BrCCCBr [1,3-dibromopropane] + CCOC(C)=O
Settings	excess molar enthalpy [kcal/mol]	mass density [kg/m3]
[1], x2 = 0.057	–	1910.48 ± 1.3
[1], x2 = 0.1189	–	1845.49 ± 1.5
[1], x2 = 0.1785	–	1782.59 ± 1.6
[1], x2 = 0.2647	–	1691.31 ± 1.8
[1], x2 = 0.3199	–	1632.54 ± 2
[1], x2 = 0.4187	–	1526.9 ± 2.2
[1], x2 = 0.466	–	1476.19 ± 2.2
[1], x2 = 0.5091	–	1429.89 ± 2.3
[1], x2 = 0.6323	–	1296.79 ± 2.4
[1], x2 = 0.6746	–	1250.93 ± 2.4
[1], x2 = 0.7715	–	1145.6 ± 2.5
[1], x2 = 0.8309	–	1080.67 ± 2.5
[1], x2 = 0.8892	–	1016.69 ± 2.4
[1], x2 = 0.9615	–	937.08 ± 2.4
[2], x2 = 0.0601	0.0131 ± 0.000574	–
[2], x2 = 0.127	0.0223 ± 0.000789	–
[2], x2 = 0.195	0.0295 ± 0.000956	–
[2], x2 = 0.2607	0.0333 ± 0.00105	–
[2], x2 = 0.3258	0.0342 ± 0.00108	–
[2], x2 = 0.3855	0.0332 ± 0.00105	–
[2], x2 = 0.4407	0.0304 ± 0.00098	–
[2], x2 = 0.4829	0.0271 ± 0.000908	–
[2], x2 = 0.487	0.0269 ± 0.000908	–
[2], x2 = 0.5298	0.0219 ± 0.000789	–
[2], x2 = 0.5741	0.0169 ± 0.000669	–
[2], x2 = 0.628	0.0109 ± 0.00055	–
[2], x2 = 0.687	0.00531 ± 0.000454	–
[2], x2 = 0.7498	0.000765 ± 0.000382	–
[2], x2 = 0.8153	-0.00174 ± 0.000406	–
[2], x2 = 0.8813	-0.00241 ± 0.00043	–
[2], x2 = 0.9434	-0.00136 ± 0.000406	–

BrCCCBr [1,3-dibromopropane] + CCOC=O
Settings	excess molar enthalpy [kcal/mol]	mass density [kg/m3]
[1], x2 = 0.0717	–	1908.92 ± 1.4
[1], x2 = 0.1454	–	1844.11 ± 1.6
[1], x2 = 0.2149	–	1781.28 ± 1.8
[1], x2 = 0.2791	–	1721.26 ± 1.9
[1], x2 = 0.3468	–	1656.48 ± 2.1
[1], x2 = 0.4099	–	1594.33 ± 2.2
[1], x2 = 0.4685	–	1534.98 ± 2.3
[1], x2 = 0.5893	–	1407.8 ± 2.5
[1], x2 = 0.6459	–	1345.63 ± 2.5
[1], x2 = 0.6988	–	1285.95 ± 2.6
[1], x2 = 0.7521	–	1224.47 ± 2.6
[1], x2 = 0.8028	–	1164.26 ± 2.6
[1], x2 = 0.8548	–	1101.12 ± 2.5
[1], x2 = 0.9056	–	1037.67 ± 2.5
[2], x2 = 0.0727	0.0421 ± 0.00127	–
[2], x2 = 0.1458	0.0721 ± 0.00198	–
[2], x2 = 0.2104	0.0959 ± 0.00263	–
[2], x2 = 0.2886	0.113 ± 0.00311	–
[2], x2 = 0.3588	0.123 ± 0.00311	–
[2], x2 = 0.4253	0.126 ± 0.00335	–
[2], x2 = 0.4828	0.125 ± 0.00335	–
[2], x2 = 0.5358	0.122 ± 0.00311	–
[2], x2 = 0.5812	0.116 ± 0.00311	–
[2], x2 = 0.6324	0.109 ± 0.00287	–
[2], x2 = 0.6925	0.0965 ± 0.00263	–
[2], x2 = 0.7529	0.0811 ± 0.0022	–
[2], x2 = 0.8177	0.062 ± 0.00174	–
[2], x2 = 0.882	0.0414 ± 0.00124	–
[2], x2 = 0.9449	0.021 ± 0.000765	–

BrCCCCBr [1,4-dibromobutane] + CCCC(=O)OCC
Settings	excess molar enthalpy [kcal/mol]	mass density [kg/m3]
[1], x2 = 0.1092	–	1704.75 ± 1.3
[1], x2 = 0.1651	–	1647.4 ± 1.4
[1], x2 = 0.2725	–	1539.36 ± 1.7
[1], x2 = 0.387	–	1427.18 ± 1.9
[1], x2 = 0.4481	–	1368.56 ± 2
[1], x2 = 0.502	–	1317.46 ± 2
[1], x2 = 0.6423	–	1187.58 ± 2.2
[1], x2 = 0.6846	–	1149.12 ± 2.2
[1], x2 = 0.7489	–	1091.51 ± 2.3
[1], x2 = 0.8041	–	1042.59 ± 2.3
[1], x2 = 0.9323	–	931.23 ± 2.3
[2], x2 = 0.0504	0.00535 ± 0.000454	–
[2], x2 = 0.1096	0.00903 ± 0.000502	–
[2], x2 = 0.173	0.0111 ± 0.00055	–
[2], x2 = 0.2384	0.0112 ± 0.00055	–
[2], x2 = 0.2992	0.00939 ± 0.000526	–
[2], x2 = 0.3567	0.00607 ± 0.000478	–
[2], x2 = 0.4115	0.000311 ± 0.000382	–
[2], x2 = 0.4617	-0.00511 ± 0.000454	–
[2], x2 = 0.5078	-0.00975 ± 0.000526	–
[2], x2 = 0.5351	-0.0127 ± 0.000574	–
[2], x2 = 0.5479	-0.0133 ± 0.000598	–
[2], x2 = 0.5908	-0.0158 ± 0.000645	–
[2], x2 = 0.6504	-0.0171 ± 0.000669	–
[2], x2 = 0.7147	-0.0172 ± 0.000669	–
[2], x2 = 0.7818	-0.0157 ± 0.000645	–
[2], x2 = 0.8513	-0.0125 ± 0.000574	–
[2], x2 = 0.9352	-0.006 ± 0.000478	–

BrCCCCBr [1,4-dibromobutane] + CCCCC(=O)OCC
Settings	excess molar enthalpy [kcal/mol]	mass density [kg/m3]
[1], x2 = 0.0539	–	1762.5 ± 1.2
[1], x2 = 0.109	–	1704.93 ± 1.3
[1], x2 = 0.2129	–	1598.64 ± 1.6
[1], x2 = 0.2678	–	1543.48 ± 1.7
[1], x2 = 0.3262	–	1485.57 ± 1.8
[1], x2 = 0.3815	–	1431.53 ± 1.9
[1], x2 = 0.469	–	1347.31 ± 2.1
[1], x2 = 0.5155	–	1303.25 ± 2.1
[1], x2 = 0.554	–	1267.17 ± 2.1
[1], x2 = 0.6207	–	1205.19 ± 2.2
[1], x2 = 0.7373	–	1099.12 ± 2.3
[1], x2 = 0.8643	–	986.49 ± 2.3
[1], x2 = 0.9324	–	927.28 ± 2.3
[2], x2 = 0.0901	0.0101 ± 0.000526	–
[2], x2 = 0.1832	0.0134 ± 0.000598	–
[2], x2 = 0.2717	0.0117 ± 0.00055	–
[2], x2 = 0.3528	0.00638 ± 0.000478	–
[2], x2 = 0.4123	-0.00198 ± 0.000406	–
[2], x2 = 0.4598	-0.00851 ± 0.000502	–
[2], x2 = 0.4897	-0.0118 ± 0.000574	–
[2], x2 = 0.5049	-0.0126 ± 0.000574	–
[2], x2 = 0.5621	-0.0171 ± 0.000669	–
[2], x2 = 0.6266	-0.0197 ± 0.000741	–
[2], x2 = 0.6967	-0.0208 ± 0.000765	–
[2], x2 = 0.7722	-0.0197 ± 0.000741	–
[2], x2 = 0.852	-0.016 ± 0.000645	–
[2], x2 = 0.9288	-0.00963 ± 0.000526	–

BrCCCCBr [1,4-dibromobutane] + CCOC(=O)CC
Settings	excess molar enthalpy [kcal/mol]	mass density [kg/m3]
[1], x2 = 0.1225	–	1707.2 ± 1.4
[1], x2 = 0.1797	–	1654.41 ± 1.5
[1], x2 = 0.2372	–	1601.35 ± 1.6
[1], x2 = 0.299	–	1544.11 ± 1.8
[1], x2 = 0.3597	–	1488.19 ± 1.9
[1], x2 = 0.479	–	1376.63 ± 2.1
[1], x2 = 0.5912	–	1271.5 ± 2.2
[1], x2 = 0.6516	–	1214.75 ± 2.3
[1], x2 = 0.7649	–	1107.74 ± 2.4
[1], x2 = 0.8159	–	1059.5 ± 2.4
[1], x2 = 0.8793	–	999.28 ± 2.4
[1], x2 = 0.9306	–	950.5 ± 2.4
[2], x2 = 0.0536	0.00581 ± 0.000454	–
[2], x2 = 0.1124	0.00918 ± 0.000502	–
[2], x2 = 0.1759	0.0118 ± 0.00055	–
[2], x2 = 0.2389	0.0119 ± 0.00055	–
[2], x2 = 0.2996	0.0102 ± 0.000526	–
[2], x2 = 0.357	0.00696 ± 0.000478	–
[2], x2 = 0.4101	0.00217 ± 0.000406	–
[2], x2 = 0.4558	-0.00277 ± 0.00043	–
[2], x2 = 0.4841	-0.00619 ± 0.000478	–
[2], x2 = 0.4948	-0.00739 ± 0.000502	–
[2], x2 = 0.5354	-0.012 ± 0.000574	–
[2], x2 = 0.5917	-0.0157 ± 0.000645	–
[2], x2 = 0.653	-0.0173 ± 0.000693	–
[2], x2 = 0.72	-0.0174 ± 0.000693	–
[2], x2 = 0.7905	-0.015 ± 0.000645	–
[2], x2 = 0.8639	-0.011 ± 0.00055	–
[2], x2 = 0.9353	-0.00614 ± 0.000478	–
